US12251382B2, “Substituted amino-pyrimidine compound for use in a method for treatment and prevention of multiple sclerosis” (Merck Patent GmbH, priority 2018, dated 2025)
Where a name gives a salt, the structure may show the parent alone.

Columns and labels:
[1] = therapeutic or supratherapeutic doses, thorough QT studies; cited from earlier work
[2] = system: human patients suffering from relapsing multiple sclerosis (RMS); assay: Phase II RMS study: HRQoL SF-36 Physical Component Summary score; format: in vivo; settings: open-label reference arm, 240 mg twice daily
Description: Analysis of Primary Endpoint
(§1) Primary and secondary efficacy endpoints were analysed based on the modified intention-to-treat (mITT) analysis set, consisting of all randomized patients with at least one available baseline and one post-baseline MRI assessment. […] For each endpoint, rate ratio (RR; null-hypothesis RR=1.0) adjusted for baseline disease activity was reported together with associated 95% CI and p-value. The T2 lesion endpoint was analysed similarly. Dose-response relationships between evobrutinib treatment dose and primary and key secondary endpoints were assessed for linear and monotonic trend. The analysis of CFB in cube root of volume of T2 lesions at Week 24 was based on a mixed-effect model for repeated measures, with fixed effects for treatment, week of visit, and treatment-by-week interaction, random effect for subject, and adjustment for baseline cube root of lesion volume. CFB in SF-36 score at Week 24 was analysed similarly. Descriptive statistics were used to further describe the study outcomes.

[3] = Phase II RMS study: safety (adverse events, laboratory) over 24 weeks; format: in vivo; settings: 240 mg twice daily, 24 weeks
Description: (§2) The assessing Investigator and central MRI reader were treatment blinded.
Safety profile of the IMP was assessed through the recording, reporting and analysis of baseline medical conditions; AEs; physical examination findings including vital signs, ECGs, and laboratory tests (including Ig and subclass concentration and B, NK, and T cell counts). Comprehensive assessment of any apparent toxicity experienced by each subject was performed from the time of giving informed consent and throughout the trial. The Investigator was to report any AEs, whether observed by the Investigator or reported by the subject.
Adverse Event: An AE was any untoward medical occurrence in a subject or clinical investigation subject administered a pharmaceutical product, regardless of causal relationship with this treatment. An AE could therefore be any unfavorable and unintended sign (including an abnormal laboratory finding), symptom, or disease temporally associated with the use of a medicinal product, whether or not considered related to the medicinal product.
The Investigator was required to grade the severity or toxicity of each AE. Investigators referenced the National Cancer Institute-Common Terminology Criteria for AEs (NCI-CTCAE), Version 4.03 (publication date: 14 Jun. 2010) a descriptive terminology provided in the Manual of Procedures that can be used for AE reporting.
A general grading (severity/intensity; hereafter referred to as severity) scale was provided at the beginning of the above referenced document, and specific event grades were also provided. Only if a particular AE's severity was not specifically graded by the guidance document, then the Investigator was to use the general NCI-CTCAE definitions of Grade 1 through Grade 5 following his or her best medical judgment. The 5 general grades are: • Grade 1 or Mild • Grade 2 or Moderate • Grade 3 or Severe • Grade 4 or Life-threatening • Grade 5 or Death.
Serious Adverse Events: An SAE is any untoward medical occurrence that at any dose: • Results in death. • Is life-threatening. (Note: The term “life-threatening” refers to an event in which the subject is at risk of death at the time of the event, not an event that hypothetically might have caused death if it was more severe) • Requires inpatient hospitalization or prolongs an existing hospitalization, except in the case of hospitalizations due to protocol-defined relapses. • Results in persistent or significant disability or incapacity. • Is a congenital anomaly or birth defect. • Is otherwise considered to be medically important.

[4] = system: human patients suffering from relapsing multiple sclerosis (RMS); assay: Phase II RMS study: qualified relapse assessment (ARR, relapse-free status); format: in vivo; settings: open-label reference arm, 240 mg twice daily, Week 24
Description: as §2
Subjects were assessed for MS relapse at visits beginning at Week 4. Relapse was also assessed at any Unscheduled Visit for Neurological Worsening and Relapse Assessment. For subjects in the OLE Period, MS relapse was assessed at all visits. A qualifying relapse was defined as new, worsening or recurrent neurological symptoms attributed to MS that last for at least 24 hours without fever or infection, or adverse reaction to prescribed medication, preceded by a stable or improving neurological status of at least 30 days. The relapse must have been accompanied by new clinical signs (i.e., changes in the neurological examination or an increase in EDSS score).
The protocol specified that all cases of potential relapse were to be objectively confirmed by the Investigator regardless of whether they were identified during a scheduled or unscheduled visit. Any assessments needed to confirm the relapse were to be performed, and details of the relapse were to be documented within the relevant section(s) of the eCRF.
Additional Secondary Endpoints
Analysis of secondary endpoints was based on the mITT analysis set. […] Descriptive statistics for ARR were calculated for each treatment group as the total number of qualified relapses divided by the number of subject-years of observation.
as §1

[5] = system: human patients suffering from relapsing multiple sclerosis (RMS); assay: Phase II RMS study: brain MRI (Gd+ T1 lesions, T2 lesions); format: in vivo; set-up: key to Gd+ T1 lesion rate (subject level), Median / Gd+ T1 Lesion rate, adjusted (negative binomial model): number of Gd+ T1 lesions per scan
Description: as §2
The protocol specified that subjects self-administered the IMP at a set time each day (every 12 hours ±2 hours). Subjects were to take their daily dose more than 1 hour prior to a meal or snack and more than 2 hours after a meal or snack. Clear fluids were allowed at any time. On trial visit days, the IMP was to be administered during the trial visit after the scheduled trial visit procedures (other than post-treatment PK/PD sampling) are completed.
Stratification occurred by region (USA or Western Europe, Eastern Europe and BTKO capable, Eastern Europe and not BTKO capable, and RoW). For the first 7 days, Tecfidera was administered orally at 120 mg twice daily. Following this and for the duration of treatment, Tecfidera was administered orally at 240 mg twice daily.
The protocol specified that MRI scans were to be performed at Screening, at 4-week intervals from Week 12 to 24, and at the End of Treatment Visit at Week 48 (including for subjects receiving Tecfidera who choose to enter the OLE Period). […] If a subject discontinued the study more than 4 weeks after his or her most recent MRI, the protocol specified that an MRI may be obtained at the 4-week Safety Follow-up Visit. The Screening MRI scan was to be acquired before randomization and dosing to allow for the readouts to be read by the central MRI reader (approximately 7 days).
Gadolinium was used to enhance T1-weighted lesions and to optimize clarity and accuracy of reporting. As gadolinium is excreted renally, subjects with acute renal insufficiency (eGFR <45 mL/min/1.73 m^2) will be excluded from the trial.
The protocol specified that brain MRI scans were performed according to a standardized imaging protocol before and after the administration of single-dose gadolinium. Images were assessed and reported by an independent, blinded, centralized MRI reading service, provided by NeuroRx Research. The assessment was performed in the absence of clinical information. Further details, including the scans required and the optimal MRI workflow, were provided in a separate Imaging Manual provided to each trial site by NeuroRx Research. All MRI images were reviewed and reported locally by a radiologist for safety. The local report was to contain only non-MS pathology and was to be provided to the Treating Investigator.
The primary endpoint was the total number of gadolinium-enhancing T1 lesions at Week 12, 16, 20, and 24. The primary analysis was a comparison of each evobrutinib dose arm versus placebo based on this endpoint, with a supportive test for dose-response. Secondary Endpoints
Other covariates were permitted to be considered. […] Descriptive statistics for the total number of Gd+ T1 lesions, at Week 12, 16, 20, and 24, are provided for each treatment group.
Estimation of mean per-scan number of Gd+ T1 lesions at Weeks 12, 16, 20, and 24, for each treatment group, was based on the NB model. In the analysis of each secondary endpoint, other covariates were permitted to be included in the model.
as §1, with “Descriptive statistics were used to further describe the study outcomes.” left out

[6] = open-label reference arm, 240 mg twice daily

SMILES | Prolongation of the QTc interval [1] | Change in SF-36 PCS score from baseline to week 24, Mean ± SD [2] | Change in SF-36 PCS score from baseline to week 24, Median [2] | Change in SF-36 PCS score from baseline to week 24, Mean ± SD ([2]; listed as dimethyl fumarate) | TEAE: Infections and infestations [3] | TEAE: Urinary tract infection [3] | Proportion of patients who qualified as relapse-free [4] [%] | Unadjusted ARR [4] | Total Gd+ T1 lesions over 4 scans in an outlier patient ([5]; one patient of the open-label reference arm) | Change in volume of T2 lesions from baseline to week 24, Mean ± SD [5, 6] [cc] | Change in volume of T2 lesions from baseline to week 24, Median [5, 6] [cc] | Gd+ T1 lesion rate (subject level), Median [5, 6] | Gd+ T1 lesion rate (subject level; count per scan, weeks 12-24), Mean ± SD [5, 6] | Total Number of New or Enlarging T2 Lesions at Week 24, Mean ± SD [5, 6] | Total number of Gd+ T1 lesions at Weeks 12, 16, 20, 24, Mean ± SD [5, 6] | Total number of Gd+ T1 lesions at Weeks 12, 16, 20, 24, Median (min-max) [5, 6] | New or enlarging T2 lesion rate (subject level), Mean ± SD ([5]; open-label reference arm, 240 mg twice daily, Weeks 12-24) | Total number of Gd+ T1 lesions at Weeks 12, 16, 20, 24, Mean ± SD ([5]; open-label reference arm, 240 mg twice daily, listed as dimethyl fumarate)
CC#CC(=O)N1CCC[C@H]1c1nc(-c2ccc(C(=O)Nc3ccccn3)cc2)c2c(N)nccn12 [acalabrutinib] | Neither ibrutinib nor acalabrutinib have been associated with clinically relevant prolongation of the QTc interval | – | – | – | – | – | – | – | – | – | – | – | – | – | – | – | – | –
COC(=O)/C=C/C(=O)OC [Dimethyl fumarate, dimethyl fumarate, reference compound] | – | 1.6 ± 5.17 | 1.7 | 1.6±5.17 | 7 (13.0) n (%) | 0 (0.0) n (%) | 89 | 0.20 | 230 | 0.46 ± 2.97 | −0.02 | 0.0 | 1.45 ± 7.29 | 5.35 ± 16.67 | 5.78 ± 29.17 | 0 (0-213) | 1.54 ± 5.46 | 5.78 (±29.17)
